For the test, the system named is L1210 leukemia ip in BDF1 mice, survival T/C. As to the kind of experiment: NCI In Vivo Anticancer Drug Screen. Data for tumor model L1210 Leukemia (intraperitoneal) in B6D2F1 (BDF1) mice. Conditions: endpoint: mean survival time, higher = longer survival. Summed up:
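Each compound was tested against a transplantable tumor grown in mice. The endpoint was survival, with treated animals benchmarked against vehicle controls as a simple ratio.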

[1] abbreviates: dose: 100.0 mg/kg/injection, schedule: Q01DX009 (ip), vehicle: saline with Tween-80.
[2] abbreviates: dose: 200.0 mg/kg/injection, schedule: Q01DX009 (ip), vehicle: saline with Tween-80.
The mark [3] stands for this setting: dose: 400.0 mg/kg/injection, schedule: Q01DX009 (ip), vehicle: saline with Tween-80.

“And” between values parts separate entries of the source, which are not always exact repeats. Identical values can stand only once. Toxic doses and inconclusive results are not listed.

Consider `Nc1nc2ncc(CNc3ccc(C(=O)NC(CCC(=O)O)C(=O)O)cn3)nc2c(=O)[nH]1` (centres undefined), for which the T/C runs as follows: (dose: 25.0 mg/kg/injection, schedule: Q01DX009 (ip), vehicle: saline with Tween-80) 104 % of control; (dose: 37.5 mg/kg/injection, schedule: Q01DX009 (ip), vehicle: saline with Tween-80) 114 % of control and 119 % of control; (dose: 50.0 mg/kg/injection, schedule: Q01DX009 (ip), vehicle: saline with Tween-80) 114 % of control; (dose: 75.0 mg/kg/injection, schedule: Q01DX009 (ip), vehicle: saline with Tween-80) 108 % of control.

`COC1OC(CO)C(O)C1n1cnc2c(SC)ncnc21` (centres undefined): the T/C by setting is: (dose: 100.0 mg/kg/injection, schedule: Q04DX002 (ip), vehicle: saline) 107 % of control; (dose: 200.0 mg/kg/injection, schedule: Q04DX002 (ip), vehicle: saline) 104 % of control.

For the compound `NC(=O)NC(=O)NC1CCCCC1`, the T/C is 102 % of control (dose: 100.0 mg/kg/injection, schedule: Q04DX003 (ip), vehicle: Klucel (hydroxypropylcellulose) (HPC)); 102 % of control (dose: 200.0 mg/kg/injection, schedule: Q04DX003 (ip), vehicle: Klucel (hydroxypropylcellulose) (HPC)); 100 % of control (dose: 400.0 mg/kg/injection, schedule: Q04DX003 (ip), vehicle: Klucel (hydroxypropylcellulose) (HPC)).

`CN1CCC=C(CN2c3ccccc3Sc3ccccc32)C1`: the T/C (dose: 25.0 mg/kg/injection, schedule: Q01DX009 (ip), vehicle: saline) was 109 % of control; the T/C (dose: 25.0 mg/kg/injection, schedule: Q04DX003 (ip), vehicle: saline) was 101 % of control; the T/C (dose: 50.0 mg/kg/injection, schedule: Q01DX009 (ip), vehicle: saline) was 119 % of control; the T/C (dose: 50.0 mg/kg/injection, schedule: Q04DX003 (ip), vehicle: saline) was 105 % of control; the T/C (dose: 100.0 mg/kg/injection, schedule: Q01DX009 (ip), vehicle: saline) is 124 % of control; the T/C (dose: 100.0 mg/kg/injection, schedule: Q04DX003 (ip), vehicle: saline) is 103 % of control and 105 % of control.

As for `O=C(NCCCCCCCCCCNC(=O)N1CC1)N1CC1`, the T/C by setting is: (dose: 0.12 mg/kg/injection, schedule: Q01DX Z (ip), vehicle: carboxymethylcellulose (CMC)) 94 % of control; (dose: 0.25 mg/kg/injection, schedule: Q01DX Z (ip), vehicle: carboxymethylcellulose (CMC)) 96 % of control; (dose: 0.4 mg/kg/injection, schedule: Q01DX Z (ip), vehicle: carboxymethylcellulose (CMC)) 115 % of control; (dose: 0.5 mg/kg/injection, schedule: Q01DX Z (ip), vehicle: carboxymethylcellulose (CMC)) 108 % of control; (dose: 0.5 mg/kg/injection, schedule: Q01DX Z (ip), vehicle: saline) 110 % of control; (dose: 0.8 mg/kg/injection, schedule: Q01DX Z (ip), vehicle: carboxymethylcellulose (CMC)) 123 % of control. Also, the T/C reads like this: (dose: 0.8 mg/kg/injection, schedule: Q01DX Z (ip), vehicle: saline) 113 % of control; (dose: 1.0 mg/kg/injection, schedule: Q01DX Z (ip), vehicle: carboxymethylcellulose (CMC)) 118 % of control; (dose: 1.2 mg/kg/injection, schedule: Q01DX Z (ip), vehicle: saline) 124 % of control; (dose: 1.8 mg/kg/injection, schedule: Q01DX Z (ip), vehicle: carboxymethylcellulose (CMC)) 155 % of control; (dose: 1.8 mg/kg/injection, schedule: Q01DX Z (ip), vehicle: saline) 118 % of control; (dose: 2.6 mg/kg/injection, schedule: Q01DX Z (ip), vehicle: carboxymethylcellulose (CMC)) 155 % of control and 160 % of control. The T/C runs as follows: (dose: 2.7 mg/kg/injection, schedule: Q01DX Z (ip), vehicle: saline) 168 % of control; (dose: 4.0 mg/kg/injection, schedule: Q01DX Z (ip), vehicle: carboxymethylcellulose (CMC)) 119 % of control; (dose: 5.0 mg/kg/injection, schedule: Q01DX001 (ip), vehicle: saline) 119 % of control; (dose: 6.0 mg/kg/injection, schedule: Q01DX Z (ip), vehicle: carboxymethylcellulose (CMC)) 96 % of control; (dose: 6.0 mg/kg/injection, schedule: Q01DX Z (ip), vehicle: saline) 112 % of control.

In the case of `Cc1ccc(C)c(NC(=O)Oc2ccc(Cl)cc2C)c1`, the T/C (dose: 100.0 mg/kg/injection, schedule: Q01DX001 (ip), vehicle: saline with Tween-80) is 100 % of control and 91 % of control; the T/C under setting [1] was 86 % of control; the T/C (dose: 100.0 mg/kg/injection, schedule: Q04DX002 (ip), vehicle: saline with Tween-80) is 92 % of control; the T/C (dose: 200.0 mg/kg/injection, schedule: Q01DX001 (ip), vehicle: saline with Tween-80) was 98 % of control; the T/C under setting [2] is 100 % of control and 89 % of control; the T/C (dose: 200.0 mg/kg/injection, schedule: Q04DX002 (ip), vehicle: saline with Tween-80) is 92 % of control. For the same compound, the T/C runs as follows: (dose: 400.0 mg/kg/injection, schedule: Q01DX001 (ip), vehicle: saline with Tween-80) 94 % of control and 100 % of control; under setting [3], 99 % of control and 100 % of control; (dose: 400.0 mg/kg/injection, schedule: Q04DX002 (ip), vehicle: saline with Tween-80) 89 % of control.

For `Oc1ccccc1C=NCCN=Cc1ccccc1O.[Zn+2]`, the T/C runs as follows: (dose: 100.0 mg/kg/injection, schedule: Q01DX001 (ip), vehicle: other) 103 % of control; (dose: 200.0 mg/kg/injection, schedule: Q01DX001 (ip), vehicle: other) 114 % of control; (dose: 400.0 mg/kg/injection, schedule: Q01DX001 (ip), vehicle: other) 100 % of control.

As to `COc1ccc(C2OCC(C)([N+](=O)[O-])CO2)cc1` (centres undefined), the T/C by setting is: (dose: 50.0 mg/kg/injection, schedule: Q01DX001 (ip), vehicle: Klucel (hydroxypropylcellulose) (HPC)) 94 % of control; (dose: 50.0 mg/kg/injection, schedule: Q04DX002 (ip), vehicle: Klucel (hydroxypropylcellulose) (HPC)) 103 % of control; (dose: 100.0 mg/kg/injection, schedule: Q01DX001 (ip), vehicle: Klucel (hydroxypropylcellulose) (HPC)) 96 % of control; (dose: 100.0 mg/kg/injection, schedule: Q04DX002 (ip), vehicle: Klucel (hydroxypropylcellulose) (HPC)) 96 % of control and 102 % of control; (dose: 200.0 mg/kg/injection, schedule: Q01DX001 (ip), vehicle: Klucel (hydroxypropylcellulose) (HPC)) 98 % of control; (dose: 200.0 mg/kg/injection, schedule: Q04DX002 (ip), vehicle: Klucel (hydroxypropylcellulose) (HPC)) 96 % of control and 100 % of control. Besides, the T/C runs as follows: (dose: 400.0 mg/kg/injection, schedule: Q01DX001 (ip), vehicle: Klucel (hydroxypropylcellulose) (HPC)) 98 % of control; (dose: 400.0 mg/kg/injection, schedule: Q04DX002 (ip), vehicle: Klucel (hydroxypropylcellulose) (HPC)) 99 % of control and 121 % of control.

`CCOC(=O)C(Cc1ccc(Cl)c(Cl)c1)(Cc1ccc(Cl)c(Cl)c1)C(=O)OCC`: the T/C is, setting by setting: under setting [1], 104 % of control; (dose: 100.0 mg/kg/injection, schedule: Q04DX003 (ip), vehicle: saline with Tween-80) 88 % of control; under setting [2], 97 % of control; (dose: 200.0 mg/kg/injection, schedule: Q04DX003 (ip), vehicle: saline with Tween-80) 89 % of control; under setting [3], 95 % of control; (dose: 400.0 mg/kg/injection, schedule: Q04DX003 (ip), vehicle: saline with Tween-80) 105 % of control.

On to `CC1(C)C2CCC3C(C#N)C(CCC#N)C=CC3C21` (centres undefined), for which the T/C was 98 % of control (dose: 100.0 mg/kg/injection, schedule: Q04DX003 (sc), vehicle: olive oil, sesame oil, peanut oil); 97 % of control (dose: 200.0 mg/kg/injection, schedule: Q04DX003 (sc), vehicle: olive oil, sesame oil, peanut oil); 101 % of control (dose: 400.0 mg/kg/injection, schedule: Q04DX003 (sc), vehicle: olive oil, sesame oil, peanut oil).

As to `c1ccc(CCNc2ccnc3ccccc23)cc1`, the T/C is, setting by setting: (dose: 12.5 mg/kg/injection, schedule: Q01DX009 (ip), vehicle: Klucel (hydroxypropylcellulose) (HPC)) 103 % of control; (dose: 12.5 mg/kg/injection, schedule: Q04DX003 (ip), vehicle: Klucel (hydroxypropylcellulose) (HPC)) 104 % of control; (dose: 25.0 mg/kg/injection, schedule: Q01DX009 (ip), vehicle: Klucel (hydroxypropylcellulose) (HPC)) 101 % of control; (dose: 25.0 mg/kg/injection, schedule: Q04DX003 (ip), vehicle: Klucel (hydroxypropylcellulose) (HPC)) 97 % of control; (dose: 50.0 mg/kg/injection, schedule: Q04DX003 (ip), vehicle: Klucel (hydroxypropylcellulose) (HPC)) 95 % of control.

In the case of `CC(C)(CC(=O)O)SCCSC(C)(C)CC(=O)O`, the T/C reads like this: (dose: 100.0 mg/kg/injection, schedule: Q01DX009 (ip), vehicle: Klucel (hydroxypropylcellulose) (HPC)) 97 % of control; (dose: 200.0 mg/kg/injection, schedule: Q01DX009 (ip), vehicle: Klucel (hydroxypropylcellulose) (HPC)) 95 % of control; (dose: 400.0 mg/kg/injection, schedule: Q01DX009 (ip), vehicle: Klucel (hydroxypropylcellulose) (HPC)) 92 % of control.
